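Grown in 96-well plates, cells were treated for 48 hours with each compound at five concentrations. Insufficient inhibition: endpoint recorded as highest concentration tested. TGI marks complete inhibition of growth.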
Assays:
Test in all cases: NCI-60 cell line screen, 48 h
SK-MEL-28 melanoma = test system: SK-MEL-28 melanoma
NCI-H23 lung = test system: NCI-H23 lung
MDA-MB-231 breast = test system: MDA-MB-231 breast
CAKI-1 renal = test system: CAKI-1 renal
SNB-75 CNS = test system: SNB-75 CNS
SW-620 colon = test system: SW-620 colon
LOX IMVI melanoma = test system: LOX IMVI melanoma
NCI-H460 lung = test system: NCI-H460 lung
IGROV1 ovarian = test system: IGROV1 ovarian
COLO 205 colon = test system: COLO 205 colon
HS 578T breast = test system: HS 578T breast
MDA-MB-435 = test system: MDA-MB-435
NCI-H226 lung = test system: NCI-H226 lung
SNB-19 CNS = test system: SNB-19 CNS
SK-MEL-5 melanoma = test system: SK-MEL-5 melanoma
SK-OV-3 ovarian = test system: SK-OV-3 ovarian
MOLT-4 leukemia = test system: MOLT-4 leukemia
786-0 renal = test system: 786-0 renal
UACC-257 melanoma = test system: UACC-257 melanoma
RXF 393 renal = test system: RXF 393 renal
TK-10 renal = test system: TK-10 renal
MDA-N = test system: MDA-N
CCRF-CEM leukemia = test system: CCRF-CEM leukemia
OVCAR-3 ovarian = test system: OVCAR-3 ovarian
HT29 colon = test system: HT29 colon
A549 NSCLC = test system: A549 NSCLC
OVCAR-4 ovarian = test system: OVCAR-4 ovarian
SN12C renal = test system: SN12C renal
MALME-3M melanoma = test system: MALME-3M melanoma
K-562 leukemia = test system: K-562 leukemia
UO-31 renal = test system: UO-31 renal
T-47D breast = test system: T-47D breast
BT-549 breast = test system: BT-549 breast
PC-3 prostate = test system: PC-3 prostate
MCF7 breast = test system: MCF7 breast
U251 CNS = test system: U251 CNS
HOP-62 NSCLC = test system: HOP-62 NSCLC
KM12 colon = test system: KM12 colon
EKVX NSCLC = test system: EKVX NSCLC
M14 melanoma = test system: M14 melanoma
SF-268 CNS = test system: SF-268 CNS
HCC-2998 colon = test system: HCC-2998 colon
HL-60(TB) leukemia = test system: HL-60(TB) leukemia
HCT-15 colon = test system: HCT-15 colon
NCI/ADR-RES ovarian = test system: NCI/ADR-RES ovarian
RPMI-8226 leukemia = test system: RPMI-8226 leukemia
SK-MEL-2 melanoma = test system: SK-MEL-2 melanoma
OVCAR-8 ovarian = test system: OVCAR-8 ovarian
HCT-116 colon = test system: HCT-116 colon
SR leukemia = test system: SR leukemia
NCI-H522 lung = test system: NCI-H522 lung
OVCAR-5 ovarian = test system: OVCAR-5 ovarian
ACHN renal = test system: ACHN renal
DU-145 prostate = test system: DU-145 prostate
UACC-62 melanoma = test system: UACC-62 melanoma
SF-539 CNS = test system: SF-539 CNS
SF-295 CNS = test system: SF-295 CNS
A498 renal = test system: A498 renal
HOP-92 NSCLC = test system: HOP-92 NSCLC

COc1cc(Nc2nc3ccc(C(F)(F)F)cc3nc2C(=O)O)cc(OC)c1OC
TGI (SK-MEL-28 melanoma): 80.3 µM
TGI (NCI-H23 lung): 45.5 µM
TGI (MDA-MB-231 breast): 53.9 µM
TGI (CAKI-1 renal): 61.7 µM
TGI (SNB-75 CNS): > 100 µM
TGI (SW-620 colon): 59.9 µM
TGI (LOX IMVI melanoma): 35.6 µM
TGI (NCI-H460 lung): 48.4 µM
TGI (IGROV1 ovarian): 66.6 µM
TGI (COLO 205 colon): 34.6 µM
TGI (HS 578T breast): 54.8 µM
TGI (MDA-MB-435): 71.1 µM
TGI (NCI-H226 lung): 40.6 µM
TGI (SNB-19 CNS): > 100 µM
TGI (SK-MEL-5 melanoma): > 100 µM
TGI (SK-OV-3 ovarian): > 100 µM
TGI (MOLT-4 leukemia): > 100 µM
TGI (786-0 renal): 74.6 µM
TGI (UACC-257 melanoma): 43 µM
TGI (RXF 393 renal): 54 µM
TGI (TK-10 renal): 62.2 µM
TGI (MDA-N): 46.8 µM
TGI (CCRF-CEM leukemia): > 100 µM
TGI (OVCAR-3 ovarian): 93.5 µM
TGI (HT29 colon): 63.3 µM
TGI (A549 NSCLC): > 100 µM
TGI (OVCAR-4 ovarian): 52.6 µM
TGI (SN12C renal): 38.1 µM
TGI (MALME-3M melanoma): 88.8 µM
TGI (K-562 leukemia): > 100 µM
TGI (UO-31 renal): 33.8 µM
TGI (T-47D breast): 78.3 µM
TGI (BT-549 breast): 37.9 µM
TGI (PC-3 prostate): 56.1 µM
TGI (MCF7 breast): > 100 µM
TGI (U251 CNS): 36.7 µM
TGI (HOP-62 NSCLC): 48.2 µM
TGI (KM12 colon): 59.4 µM
TGI (EKVX NSCLC): 97.2 µM
TGI (M14 melanoma): 93.3 µM
TGI (SF-268 CNS): 46.8 µM
TGI (HCC-2998 colon): 34.5 µM
TGI (HL-60(TB) leukemia): > 100 µM
TGI (HCT-15 colon): 35.3 µM
TGI (NCI/ADR-RES ovarian): 45.5 µM
TGI (RPMI-8226 leukemia): 91.3 µM
TGI (SK-MEL-2 melanoma): 45.3 µM
TGI (OVCAR-8 ovarian): 72.1 µM
TGI (HCT-116 colon): 34.9 µM
TGI (SR leukemia): > 100 µM
TGI (NCI-H522 lung): 51.8 µM
TGI (OVCAR-5 ovarian): > 100 µM
TGI (ACHN renal): 51.5 µM
TGI (DU-145 prostate): 80.6 µM
TGI (UACC-62 melanoma): 38.2 µM
TGI (SF-539 CNS): 86.5 µM
TGI (SF-295 CNS): 81.9 µM

C1=NCCNCCNCCN=Cc2ccccc2OCc2cccc(n2)COc2ccccc21
TGI (SK-MEL-28 melanoma): > 100 µM
TGI (NCI-H23 lung): > 100 µM
TGI (MDA-MB-231 breast): > 100 µM
TGI (CAKI-1 renal): > 100 µM
TGI (SNB-75 CNS): > 100 µM
TGI (SW-620 colon): > 100 µM
TGI (NCI-H460 lung): > 100 µM
TGI (IGROV1 ovarian): > 100 µM
TGI (COLO 205 colon): > 100 µM
TGI (HS 578T breast): > 100 µM
TGI (MDA-MB-435): 30 µM
TGI (NCI-H226 lung): > 100 µM
TGI (SNB-19 CNS): > 100 µM
TGI (SK-MEL-5 melanoma): > 100 µM
TGI (SK-OV-3 ovarian): > 100 µM
TGI (MOLT-4 leukemia): > 100 µM
TGI (786-0 renal): > 100 µM
TGI (UACC-257 melanoma): > 100 µM
TGI (RXF 393 renal): > 100 µM
TGI (MDA-N): 45.3 µM
TGI (A498 renal): > 100 µM
TGI (CCRF-CEM leukemia): 55.1 µM
TGI (OVCAR-3 ovarian): > 100 µM
TGI (HT29 colon): 51.6 µM
TGI (A549 NSCLC): > 100 µM
TGI (OVCAR-4 ovarian): > 100 µM
TGI (SN12C renal): > 100 µM
TGI (MALME-3M melanoma): > 100 µM
TGI (K-562 leukemia): > 100 µM
TGI (UO-31 renal): > 100 µM
TGI (T-47D breast): > 100 µM
TGI (BT-549 breast): > 100 µM
TGI (PC-3 prostate): > 100 µM
TGI (MCF7 breast): > 100 µM
TGI (U251 CNS): 66.3 µM
TGI (HOP-62 NSCLC): > 100 µM
TGI (KM12 colon): > 100 µM
TGI (EKVX NSCLC): > 100 µM
TGI (M14 melanoma): > 100 µM
TGI (SF-268 CNS): > 100 µM
TGI (HL-60(TB) leukemia): 73.7 µM
TGI (HCT-15 colon): > 100 µM
TGI (NCI/ADR-RES ovarian): 60.4 µM
TGI (RPMI-8226 leukemia): > 100 µM
TGI (SK-MEL-2 melanoma): > 100 µM
TGI (OVCAR-8 ovarian): 84.4 µM
TGI (HOP-92 NSCLC): > 100 µM
TGI (HCT-116 colon): > 100 µM
TGI (SR leukemia): 88.9 µM
TGI (NCI-H522 lung): > 100 µM
TGI (OVCAR-5 ovarian): > 100 µM
TGI (ACHN renal): 83.4 µM
TGI (DU-145 prostate): > 100 µM
TGI (UACC-62 melanoma): > 100 µM
TGI (SF-539 CNS): 82.3 µM
TGI (SF-295 CNS): 94 µM

From PubChem BioAssay (NCI)
